In patent publication US11607404B2, “Combinations of RAD51 and PARP inhibitors” (Cyteir Therapeutics, Inc., priority 2019, dated 2023):

Assays:
[1] = test system: Daudi cell line (AID positive); assay: Primary screening cell killing assay (Cell-Titer Glo, Day 7); assay type: cell-based; conditions: Homo sapiens, 168 h; Daudi cells (AID positive), cell death on Day 7; read-out: AID+ EC50
In short: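 Daudi cells (AID positive), 1250 per well, were treated with serially diluted compounds and incubated at 37° C. Viability was read by Cell-Titer Glo on Day 7. Percent cell death and EC50 came from media-subtracted RLU of treated wells relative to non-treated wells.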

TM00091 model = assay: Tumor growth inhibition, subcutaneous engrafted tumor model; assay type: in vivo, mice; conditions: HRD Positive, RAD51 High, BRCA1 Mut, PALB2 WT, 67A 40 mg/kg QD, olaparib 50 mg/kg QD, combo both
Procedure: (§1) Immunodeficient mice were subcutaneously engrafted in the rear flank with the tumor cells. The tumors were allowed to grow to a size of about 100 to about 200 mm^3 prior to being randomized and grouped into treatment arms. For models […] through […] the four treatment arms were vehicle, Compound 67A at 80 mg/kg QD, olaparib at 100 mg/kg QD, and Compound 67A+Olaparib at 80 mg/kg QD and 100 mg/kg QD, respectively. For models J000101173 through TM00091 the treatment arms were vehicle, Compound 67A at 40 mg/kg QD, olaparib at 50 mg/kg QD, and Compound 67A+Olaparib at 40 mg/kg QD and 50 mg/kg QD, respectively. The tumors were measured either once weekly or twice weekly.
(§2) Percent Tumor Growth Inhibition (% TGI) was calculated by taking the mean volume of each of the treatment arms, and comparing the treatment arms to the vehicle arms using the following equation

HBCx27 model = assay: as above; assay type: in vivo, mice; conditions: HRD Negative, RAD51 High, BRCA WT, PALB2 WT, 67A 80 mg/kg QD, olaparib 100 mg/kg QD, combo both
Procedure: as §1, §2

HBCx1 model = assay: as above; assay type: in vivo, mice; conditions: HRD Positive, RAD51 High, BRCA WT, PALB2 WT, 67A 80 mg/kg QD, olaparib 100 mg/kg QD, combo both
Procedure: as §1, §2

[2] = test system: ARPE19/HPV16 (HPV Immortalized RPE); assay: Cell line screen (potency assay); assay type: cell-based; conditions: ARPE-19, AICDA expression Negative
Procedure: The first step was to set up a cell killing assay in the Daudi cell line (AID positive). A 96 well u-bottom plate was prepared by writing the experiment number, plate number, date and initials in the top right corner of the plate lid. With a sterile 300 ml reservoir, and 25 ml serological pipette, evaporation buffer media was pipetted into reservoir in 25 ml increments. Using the liquid handler, 150 ul of evaporation buffer media was pipetted from reservoir into rows A and H, and Columns 1 and 12 of the 96 well u-bottom plate. Cell cultures were counted to obtain the density of cells per ml, and the culture viability. The cell density information was used to obtain 1,000,000 cells from culture using a 5 mL serological pipette into an epi tube. The cell density information from the culture was used to calculate the number of cells and volume of media needed for the assay to seed 1250 cells in 130 ul of media per available culture well in the 96 well u-bottom plate. Rows B through F were used for cells (50 wells in total), with row G left for an empty media control. The calculation was overestimated by 10 mL to account for the dead volume in the 300 ml reservoir. Once the media volume was calculated, the appropriate volume of media was pipetted in 25 mL increments into the 250 mL bottle using a 25 mL serological pipette. The 250 ml bottle was capped tightly, and placed into a 37° C. water bath for 2 minutes. While the culture media was warming, 10 mL of fresh media was pipetted from the 500 mL culture media bottle into a sterile 25 mL reservoir. Using the Eppendorf multichannel pipette, 130 ul of media was piptted from the 25 mL reservoir into row G of the 96 well u-bottom plate. Once the 250 mL bottle of media was warmed, the volume of culture needed was pipetted into the bottle, and mixed gently with a 25 mL serological pipette as to not create bubbles, and then the contents of the bottle were pipetted into a new 300 mL reservoir. Using the liquid handler, 130 ul of culture was pipetted from the 300 mL reservoir into rows B through F of the 96 well u-bottom plate. Once the culture was added, the plate was placed into a 37° C. incubator until the compound master plate was prepared for use.
Two 96 well u-bottom plates were prepared by writing the master plate name in the upper right corner of the plate lid. Labeling one DMSO master and the other Media Master. The compounds of interest were obtained from the laboratory freezer, and placed into a 25 well storage box with a lid, and set the box aside. The compounds were vortexed after thawing but before use. Using an automatic multichannel pipette, 20 ul of 100% DMSO was pipetted into wells B3-B11 through G3-G11 of the DMSO master plate. For each compound on the master plate, 50 ul of the compound were pipetted in the appropriate well of row 2 (reference plate map to determine appropriate well). A serial dilution was prepared beginning by aspirating 20 ul from row 2 and mixing with row 3, repeating until row 11 was reached. Using the liquid handler, 194 ul of Daudi media was dispensed into wells B2-B11 through G2-G11 of the Media master plate. Using the liquid handler, 6 ul from the DMSO master plate was aspirated and dispensed into the media master plate, mixing 100 ul twice.
Compounds from master plate were then added to the culture plate. The culture plates were removed from the incubator, and set inside the biosafety cabinet. Using a liquid handler, 20 ul from wells B2 to B11 through G2 to G11 of master plate were aspirated, and dispensed into wells B2 to B11 through G2 to G11 of culture plate. This set was continued with each culture plate. Once the culture plates acquired their 20 ul of compound dilutions, they were placed back into the incubator, until their reads on Day 7 of experiment. Cell death was measured on Day 7 of the experiment using Cell-Titer Glo and a Promega Plate reader. […]

[3] = Pharmacokinetic (PK) study; assay type: in vivo, Rat; conditions: po @ 80 mg/kg (30% PEG400, 10% Vitamin E TPGS in water)
Procedure: PK studies in mice were used to determine the fate of the compounds in a whole organism. Rats were treated with the compounds either orally of via IV at the indicated doses and followed for up to 24 hours. Plasma samples were taken at different time points and analyzed by LC-MS.

[4] = Human liver microsome stability; assay type: in vitro ADME; conditions: percentage of hepatic blood flow
Procedure: The stability of the claimed compounds was determined in the presences of human liver microsomes. The compounds were incubated with the microsomes at 37° C. for 45 minutes. Samples were analyzed using LC-MS/MS. Data analysis included half-life, clearance rate, and the percentage of hepatic blood flow (% QH) for each of the compounds in the different species.

CC(C)OC(=O)Nc1ccc(-c2cnc([C@H]3CC[C@H](NC(=O)OC(C)C)CC3)s2)c(S(=O)(=O)NC(C)(C)C)c1 [Compound 67A, trans-isopropylN-[3-(tert-butylsulfamoyl)-4-[2-[4-(isopropoxycarbonylamino)cyclohexyl]thiazol-5-yl]phenyl]carbamate]
EC50 [1]: ≤ 1 µM
% TGI (TM00091 model): 27%
% TGI (HBCx27 model): 13.14%
% TGI (HBCx1 model): 28.75%
EC50 [2]: > 10 µM
F (%) @ 5 mg/kg ([3]; Rat Female): 86.5%
F (%) @ 5 mg/kg ([3]; Rat Male): 46.9%
Human Liver Microsome Stability % QH [4]: <20.3%
